Measurements as given in patent US9956199B2, “Chromane-like cyclic prenylflavonoids for the medical intervention in neurological disorders” (priority 2011, dated 2018).
“Also recorded” adds a separate entry of the source.

Assays:
[1] = test system: MEF cells; test: neurite length and branching in MEF cultures; type: cell-based, mouse; conditions: 10 μM and 100 μM, 7 days
Description: Mouse embryonic day 16 forebrain cells were prepared and treated as described in Example 17.
The morphology of MEF cells after a 7 day treatment with retinoic acid/valproic acid or with compound 1a (ENDF1) is illustrated in FIG. 4. Cells were fixed and stained with DCX and Map2ab antibodies as described in Example 18. Three independent experiments were performed and evaluated. Data acquisition was done by using the software Volocity 5.3.1 for measurement and photographical documentation. The following parameters were analyzed: polarity, process, number of branches, number and length of sprouts, neurite-length and growth cone morphology.
For quantitative analysis of neurite length, neurons with long neurites were taken into consideration. […] For quantitative analysis of neurite branching, the branch density (number of branches per 100 μm of neurite length) was counted. For analysis, the DCX staining with DMEM-KO medium was used, since DCX, in contrast to Map2ab, is localized throughout the neurites.

[2] = test system: chicken dorsal root ganglion neurons; test: neurite outgrowth in primary chicken dorsal root ganglion neurons; type: cell-based; conditions: E8 and E15 DRG neurons, 12 to 24 hours; compound 1a 10 μM, NGF 20 ng/ml; GAP-43 staining
Description: Dorsal root ganglion neurons comprise of an axon with two branches and are a good model for neuronal differentiation. Embryonic day 8 and 15 chicken dorsal root ganglions were examined for immunochemical staining with GAP43 after incubation with NGF 20 ng/ml and compound 1a (ENDF1) 10 μM to analyze whether compound 1a alone or in combination with the nerve growth factor enhances neurite outgrowth and branching.
Embryonic day (E) 8 and E15 chicken Dorsal Root Ganglions (DRGs) were prepared as described in: Aigner, 1993; Aigner, 1995. Briefly, foetuses were taken out of the egg, decapitated and the DRGs were targeted from the ventral side. The 10 lumbar region DRGs per foetus were dissected, and a total of 100 DRGs were collected in 10 ml DPBS in a 15 ml Falcon tube. DRGs were centrifuged 120×g for 3 min and then enzymatically treated with 1 ml trypsin 0.5 mg/ml+EDTA 0.22 mg/ml (PAA, Pasching, Austria) for 15 min. Then, 9 ml of DMEM 10% FCS were added to inactivate the trypsin and DRGs were centrifuged 120×g for 5 min. DRGs were resuspended and washed with 5 ml of DMEM 10% FCS, pipetted up and down to dissociate them, centrifuged, resuspended in 5 ml of DMEM 10% FCS and transferred into a 60 mm diameter cell culture dish. […]

COc1cc2c(c(O)c1C(=O)/C=C/c1ccc(O)cc1)C=CC(C)(C)O2 [Compound 1a, (E)-1-(5-hydroxy-7-methoxy-2,2-dimethyl-2H-chromen-6-yl)-3-(4-hydroxyphenyl)prop-2-en-1-one]
neurite branching/sprouting (branches per 100 μm of neurite length) ([1]; DMEM-KO, FIG. 4J): high density of branches/sprouts; also recorded: strongly increases neurite length and neurite branching; also recorded: dramatic increase in branching/sprouting | neurite length (DCX positive neurite profiles) ([1]; compared to control and RA+VPA, FIG. 4I): significant increase in neurite length; also recorded: strongly increases neurite length and neurite branching; also recorded: much longer neurites | neurite extension [2]: strongly promote neurite extension; also recorded: promotes neurite extension to a similar degree as NGF; also recorded: almost in the range of NGF
